Laboratory results published in patent publication EP0406111A1, “Substituted arylamines and heteroarylamines, process for their preparation and pharmaceutical composition containing them” (SOCIETE DE CONSEILS DE […] D'APPLICATIONS SCIENTIFIQUES …, priority 1989, dated 1991).
Read-outs that look alike come from different tables or passages of the source.

Tests used:
[1] = target: T1, capture de (³H)dopamine par les synaptosomes striataux de rat (Rattus norvegicus, UniProt P23977); assay: biochemical
T1 construct: Les culots résultants P2 contenant les synaptosomes bruts sont ensuite utilisés sans purification supplémentaire; from tissue; host or cells: Wistar rat striatum, crude synaptosomes (P2 pellet)
Procedure: Ce test est pratiqué selon la méthode utilisée par Vignon et Lazdunski en opérant de la façon suivante. Des rats Wistar pesant 200-250g sont tués par dislocation cervicale. Leurs cerveaux sont rapidement prélevés et les striata sont dissé-qués sur la glace. Les striata sont ensuite homogéné-isés (10 allers-retours) avec un homogénéisant Potter dans 50 volumes de tampon Tris HCl 10 mM à pH 7,4 contenant 0,32 M de sucrose. L'homogénat est ensuite centrifugé à 1000g pendant 10min à 4°C, puis le surnageant obtenu est recentrifugé à 10000g pendant 20min à 4°C. Les culots résultants P2 contenant les synaptosomes bruts sont ensuite utilisés sans purification supplémentaire.
On ajoute alors de la dopamine tritiée ((³H)DA, Amersham) à une concentration finale de 5 nM pendant 5 min à 30°C, et on interrompt sa capture par filtration de 150 µl du milieu d'incubation sur des filtres en fibres de verre GF/B (Whatman). La radioactivité retenue par les filtres est mesurée dans un compteur à scintillation liquide (LKB)avec 3 ml d'ACS (Amersham) comme scintillant. La capture non spécifique est mesurée à 4°C dans des incubations parallèles : elle est ensuite sous-traite de la capture totale mesurée à 30°C.
Les composés à tester sont solubilisés au départ dans de l'eau à une concentration de 1mM et les autres concentrations sont obtenues par des dilutions successives de cette solution mère dans l'eau.

[2] = target: T2, complexe de recapture de la dopamine (Rattus norvegicus, UniProt P23977); assay: biochemical; assay type: binding; settings: for Sélectivité IC50[^3H]TCP / IC50[^3H]BTCP: ratio of IC50 at the PCP receptor to IC50 at the dopamine reuptake complex
T2 construct: expériences de compétition sur les membranes de striatum préparées comme ci-dessus; from tissue; host or cells: rat striatal membranes
Procedure: Exemple 35 : Affinité des composés pour les sites de liaison de la (³H)BTCP sur les membranes striatales de cerveaux de rats.
Les striata de cerveaux de rats rapidement disséqués dans la glace sont homogénéisés avec un ultra turax pendant 30 s (position 6) dans 50 volumes d'une solution de sucrose 0,32 M tamponnée par du Tris-HCl 10 mM à pH = 7,4. L'homogénat est centrifugé à 4°C à 1000g pendant 10 mln, puis le surnageant obtenu est centrifugé à 40000 g à 4°C pendant 30 min et les culots obtenus sont repris dans 1 ml de tampon par striatum.
L'affinité des composés pour le complexe de recapture de la dopamine est déterminée par des expériences de compétition sur les membranes de striatum préparées comme ci-dessus. Le ligand radioactif utilisé est la (³H)BTCP (Service des Molécules Marquées du CEA, Saclay France) à 55Ci/mmol.
Après 90 min à 4°C, 3 aliquots de 250 µl sont filtrés sous vide sur des filtres de fibre de verre GF/B (Whatman). La liaison non spécifique est obtenue dans des expériences parallè-les réalisées en présence de 10 µM de BTCP non marquée. Elle est soustraite de la liaison totale pour obtenir la liaison spécifique.

récepteur de la PCP = assay: Competition binding at the (3H)TCP sites on rat brain homogenates (Example 36); settings: 1 nM (3H)TCP, 30 min at 25°C
Source text: Exemple 36 : Affinité des composés pour les sites de liaison de la (³H)TCP sur les homogénats de cerveaux de rats.
Dans cet essai on mesure les affinités des composés pour le récepteur de la PCP par des expériences de compétition sur des homogénats de cerveaux de rats. Le ligand radioactif utilisé est la (³H)TCP à une activité spécifique de 62 Ci/mmol (Service des Molécules Marquées, CEA Saclay France).
Les cerveaux de rats (sans le cervelet et le tronc cérébral) sont homogénéisés à l'ultra turax dans 20 volumes de tampon Hepes-Tris 50 mM, pH 7,7. Après centrifugation pendant 30 min à 15000 g le culot est repris dans le même volume de tampon et recentrifugé dans les mêmes conditions. Le culot final est repris dans du tampon Hepes-Tris 50 mM, pH 7,7 de façon à obtenir une concentration en protéine de 6 à 8 mg/ml.
Les expériences de compétition sont réalisées en incubant pendant 30 min les membranes (concentration finale en protéine : 0,6 à 0,8 mg/ml) en milieu tampon 5 mM Hepes-Tris, pH 7,7 à 25°C, en présence d'une concentration fixe de ligand tritié (1 nM)et de concentrations croissantes de composés à tester. Trois échantillons de 600 µL sont ensuite filtrés sur filtres de fibres de verre GF/B prétraités par du PEI (polyéthylénimine) à 0,1%. Les filtres sont rincés avec 3x5ml de tampon Tris-HCl 10 mM, NaCl 100 mM et la radioactivité retenue est mesurée dans un compteur à scintillation liquide. La liaison non spécifique est obtenue en présence de TCP […].

souris Swiss = assay: Locomotor activity of mice in the Boissier-Simon actimeter (Example 38); assay type: in vivo; settings: 30 min after administration, beams crossed from 20th to 35th minute
Procedure: Exemple 38 : Mesure de l'activité locomotrice.
L'activité locomotrice de souris Swiss (mâles CD1, 25-30 g, Charles River, St Aubin lès Elbeuf, France) est mesurée dans l'actimètre Boissier-Simon (Apelex, Bagneux, France).
30 minutes après l'administration des composés à tester (10 mg/kg, i.p.), les souris sont introduites dans des cages individuelles en Plexiglass (L = 26 cm, l = 20 cm, h = 10 cm), équipées de deux cellules photoélectriques situées à 1 cm au-dessus du plancher. Chaque cellule est reliée à un compteur électromécanique. "L'activité locomotrice" correspond au nombre de rayons traversés, de la 20ème à la 35ème minute après introduction dans les cages d'actimétrie.

[3] = system: fixation de la (³H)BTCP dans le striatum de souris; assay: Inhibition of in vivo (3H)BTCP binding in mouse striatum (Example 40); settings: mice, compound s.c. 60 min before i.v. (3H)BTCP, sacrifice 30 min later
Procedure: Exemple 40 : Etude de l'inhibition de la fixation "in vivo" de (³H)BTCP chez la souris.
Pour cette étude, on utilise des souris Swiss mâles pesant 20 à 25g. Les souris sont réparties par groupes et alimentées avec de la nourriture standard de laboratoire et de l'eau à volonté, en réalisant des cycles de lumière artificielle de 12h consécutives à partir de 7h du matin. Les expériences sont effectuées entre 10h et 18h. Les mesures de la fixation "in vivo" de la (³H)BTCP sont effectuées comme il a été décrit par Maurice et al, 1989, de la façon suivante.
On injecte aux souris par voie sous-cutanée le composé à tester dans 100µl de solution physiologique pour les composés n^o 4 et n^o 16 et dans 100µl d'un mélange 1:1 en volume de solution physiologique et de DMSO pour le composé n^o 26. 60 min après cette injection on leur injecte dans une veine de la queue (³H)BTCP à une dose de 5µCi dans 100µl d'un mélange de solution physiologique et d'éthanol à 5%. 30min après cette injection, on sacrifie les souris. Les striata de cerveaux sont rapidement disséqués et homogénéisés avec un ultra turrax (IKA Verk) réglage maximum pendant 20s dans 80 volumes d'un tampon Na₂HPO₄, HCl 50mM, pH=7,4 à 4°C. Deux aliquots de […] sont filtrées sous pression réduite sur des filtres GF/B (Whatman) prétraités par de la polyéthylène imine à 0,5% (Aldrich). On rince ensuite les filtres deux fois avec 5ml d'un tampon NaCl 50mM, tris-HCl 10mM, pH=7,4 à 4°C. La radioactivité fixée qui reste sur les filtres, et la radioactivité totale, obtenue à partir des deux aliquots de 200µl d'homogénats sont mesurées dans des flacons de 6ml contenant 3,5ml de ACS (Amersham) avec un spectrophotomètre à scintillation liquide Excel 1410 (LKB). La fixation non spécifique est définie comme la radioactivité présente dans chaque région après prétraitement des animaux avec de la BTCP (40mg/kg dans 100µl de solution saline), injectée par voie sous-cutanée, 60min avant l'injection de (³H)BTCP. Les résultats sont exprimés sous la forme des rapports radioactivité fixée / radioactivité libre (B/F) dans lesquels le taux de (³H)BTCP libre est estimé en soustrayant la radioactivité fixée de la radioactivité totale.

[4] = rat striatal synaptosomes, 5 nM (3H)DA, 5 min at 30°C, read-out: [3H] DA IC50
[5] = rat striatal membranes, 0,2 nM (3H)BTCP, 90 min at 4°C, read-out: [3H] BTCP IC50

T2 sequence (P23977 whole entry, one chain of several): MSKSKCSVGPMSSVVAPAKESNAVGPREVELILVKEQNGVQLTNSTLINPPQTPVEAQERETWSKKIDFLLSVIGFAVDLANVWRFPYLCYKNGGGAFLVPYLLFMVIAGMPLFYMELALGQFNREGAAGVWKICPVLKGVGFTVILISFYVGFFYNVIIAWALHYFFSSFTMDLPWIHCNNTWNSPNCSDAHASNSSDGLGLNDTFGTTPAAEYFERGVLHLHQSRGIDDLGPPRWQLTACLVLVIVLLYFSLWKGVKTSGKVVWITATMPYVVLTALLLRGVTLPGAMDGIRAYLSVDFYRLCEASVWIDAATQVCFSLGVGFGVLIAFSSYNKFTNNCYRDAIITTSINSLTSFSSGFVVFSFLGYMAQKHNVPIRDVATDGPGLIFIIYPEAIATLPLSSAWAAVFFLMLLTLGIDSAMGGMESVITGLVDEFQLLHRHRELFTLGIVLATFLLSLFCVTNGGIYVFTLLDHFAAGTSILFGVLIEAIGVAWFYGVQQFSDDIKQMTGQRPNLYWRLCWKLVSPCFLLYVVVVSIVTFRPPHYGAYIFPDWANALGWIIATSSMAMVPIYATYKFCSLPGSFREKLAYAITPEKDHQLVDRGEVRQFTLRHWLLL
T1 sequence (P23977 whole entry): as the sequence (P23977 whole entry, one chain of several) above

SMILES	IC50 [1, 4]	IC50 [2, 5]	also measured
CC(=O)OCC1CCCN(C2(c3cc4ccccc4s3)CCCCC2)C1 (stereo not drawn) [composé n^o 15, acétate de (benzo(b)-thiophényl-2)-1 ((hydroxyméthyl-3 pipéridino)-1)-1 cyclohexane]	44.5 nM	24 nM	–
c1ccc2sc(C3(N4CCC5(CC4)OCCO5)CCCCC3)cc2c1 [composé n^o 5, (benzo(b)thiophényl-2)-1 ((éthylènekétal-4 pipéridino)-1)-1 cyclohexane]	65.7 nM	35.5 nM	Sélectivité IC50[^3H]TCP / IC50[^3H]BTCP [2]: >>2816; IC50 (récepteur de la PCP): > 100000 nM
ICC1CCCN(C2(c3cc4ccccc4s3)CCCCC2)C1 (stereo not drawn) [composé n^o 11]	54.3 nM	26 nM	Sélectivité IC50[^3H]TCP / IC50[^3H]BTCP [2]: >>3846; IC50 (récepteur de la PCP): > 100000 nM
OCC1CCCN(C2(c3cc4ccccc4s3)CCCCC2)C1 (stereo not drawn) [composé n^o 9, (benzo(b)thiophényl-2)-1 ((hydroxyméthyl-3 pipéridino)-1)-1 cyclohexane]	20.9 nM	18.1 nM	Activité locomotrice Variation (%) par rapport aux témoins (100%) pour la dose 10 mg/kg,i.p. (souris Swiss): +416±36%
CCN(CC)C1(c2cc3ccccc3s2)CCCCC1 [composé n^o8, (benzo(b)thiophényl-2)-1 (diéthylamino-1)-1 cyclohexane]	–	–	Activité locomotrice Variation (%) par rapport aux témoins (100%) pour la dose 10 mg/kg,i.p. (souris Swiss): +52±21%; IC50 [1]: 20.1 nM; IC50 [2]: 16.7 nM
c1ccc2cc(C3(N4CCCCC4)CCCCC3)ccc2c1 [composé n^o 16, (naphtyl-2)-1 (pipéridi-no-1)-1 cyclohexane]	36.3 nM	14.8 nM	Activité locomotrice Variation (%) par rapport aux témoins (100%) pour la dose 10 mg/kg,i.p. (souris Swiss): +269±57%; ID₅₀ (mg/kg) [3]: 2,66 mg/kg
CC1CCCC(c2cc3ccccc3s2)(N2CCCCC2)C1 (stereo not drawn) [composé n^o 23, (benzo(b)thiophényl-2)-1 t-méthyl-3-r-(pipéridino-1)-1 cyclohexane]	606 nM	590 nM	–
c1ccc2c(C3(N4CCCCC4)CCCCC3)cccc2c1 [composé n^o 17, (naphtyl-1)-1 (pipéridino-1)-1 cyclohexane]	3250 nM	2560 nM	–
CC1CC(C)CN(C2(c3cc4ccccc4o3)CCCC(C)C2)C1 (stereo not drawn) [composé n^o 14, (benzo(b)furannyl-2)-1-r-((diméthyl-3,5 pipéridino)-1)-1 t-méthyl-3 cyclohexane]	2740 nM	2210 nM	–
ClCC1CCCN(C2(c3cc4ccccc4s3)CCCCC2)C1 (stereo not drawn) [composé n^o 12, (benzo(b)thiophényl-2)-1 ((chlorométhyl-3 pipéridino)-1)-1 cyclohexane]	107 nM	102 nM	–
CC1CCCCC1(c1cc2ccccc2s1)N1CCCCC1 (stereo not drawn) [composé n^o 25, (benzo(b)thiophényl-2)-1 t-méthyl-2--r-(pipéridino-1)-1 cyclohexane]	1280 nM	1480 nM	–
C[C@H]1CCCC[C@@]1(c1cc2ccccc2s1)N1CCCCC1 (relative stereo) [composé n^o 24, (benzo(b)thiophényl--2)-1 c-méthyl-2-r-(pipéridino-1)-1 cyclohexane]	30.6 nM	14.7 nM	Activité locomotrice Variation (%) par rapport aux témoins (100%) pour la dose 10 mg/kg,i.p. (souris Swiss): +101±23%
CC1CC(C)CN([C@]2(c3cc4ccccc4s3)CC[C@H](C)CC2)C1 (relative stereo) [composé n^o 13, (benzo(b)thiophényl-2)-1-r-((diméthyl-3,5 pipéridino)-1)-1 c-méthyl-4 cyclohexane]	425 nM	635 nM	–
CC1CCN(C2(c3cc4ccccc4s3)CCCCC2)CC1 [composé n^o 7, (benzo(b)thiophényl-2)-1 ((méthyl-4 pipéridino)-1)-1 cyclohexane]	11.5 nM	30.8 nM	–
C[C@H]1CCC[C@@](c2cc3ccccc3s2)(N2CCCCC2)C1 (relative stereo) [composé n^o 22, (benzo(b)thiophényl-2)-1 c-méthyl-3-r-(piperidino-1)-1 cyclohexane]	691 nM	369 nM	–
